Source: US20250333389A1, “PHARMACEUTICAL FOR THE INHIBITION OF CELLULAR PROTON PUMPS” (AquaRemedi Pharmaceuticals INC, priority 2024, published 2025)
“Also recorded” adds a separate entry of the source. Read-outs that look alike come from different tables or passages of the source.

Experiments:
human Hv1 channel [1] = molecular target: T1, human Hv1 channel (Homo sapiens, UniProt Q96D96); test: Whole cell patch clamp recording of Hv1 proton currents in transfected HEK293T cells; assay type: cell-based; conditions: calculated as Ki=Koff/Kon, read-out: inhibition constant Ki for Hv1 channels
T1 construct: expressed in transfected cells; host or cells: HEK293T
T1 sequence (Q96D96 1-273): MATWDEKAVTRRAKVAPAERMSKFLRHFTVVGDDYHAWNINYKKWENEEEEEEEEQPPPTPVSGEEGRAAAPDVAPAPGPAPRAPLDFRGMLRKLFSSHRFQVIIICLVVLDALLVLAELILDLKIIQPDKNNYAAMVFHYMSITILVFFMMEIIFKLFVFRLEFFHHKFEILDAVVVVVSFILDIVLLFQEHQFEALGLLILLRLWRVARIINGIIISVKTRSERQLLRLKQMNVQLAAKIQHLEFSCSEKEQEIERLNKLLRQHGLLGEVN

human Hv1 channel [2] = molecular target: T1, human Hv1 channel; test: as above; assay type: cell-based; conditions: for V1/2 shift of G-V curve: Boltzmann fit; for pore blocker strength for Hv1 channel (in words): conclusion from patch clamp data
From the text: For conducting experiments, we used HEK293T cells. The HEK293T cells were purchased from American Type Culture Collection (ATCC). For cell culture, the HEK293T cells were maintained in ATTC's Dulbecco's Modified Eagle's Medium (DMEM) supplemented with a 10% fetal bovine serum (FBS 10%) and 1% penicillin and streptomycin. Plasmids were transfected into cells using a transfection reagent, Lipofectamine™ 2000 according to the manufacturer's instructions (Life Technologies). Experiments were performed 24-48 hours post-transfection.
For the experimental studies, similar techniques as utilized by Zhao et. al is used in this invention. (Zhao et al., Role of human Hv1 channels in sperm capacitation and white blood cell respiratory burst established by a designed peptide inhibitor, Proc Natl Acad Sci USA. 2018, PMID: 30478045, PMCID: PMC6294887).
In the present invention, a Whole Cell patch clamp technique was utilized to study the Hv1 proton currents. The proton currents passed by Hv1 were recorded in Whole Cell mode using an Axon™ Axopatch™ 200B microelectrode amplifier. Stimulation and data collection were performed by a high-resolution, low-noise digitizer, Digidata 1322A, manufactured by Axon Instruments, Inc.) and Axon™ pCLAMP™ 10 Electrophysiology Data Acquisition & Analysis Software (released by Molecular Devices). Cells were perfused with an external bath solution comprised of a zwitterionic sulfonic acid buffering agent (100 mM HEPES), 100 mM NaCl, and 10 mM glucose at pH 7.5. During the patch clamp recording, the patch pipettes with a resistance between 3 and 5 MΩ were filled with 100 mM Bis-Tris buffer, 100 mM NaCl, and 10 mM glucose at pH 6.0. The sampling frequency was 10 kHz and the signals were filtered at 1 KHz.
Fractional unblocked current was assessed at the end of the test pulse.
Dose-response curves (the time course for block and unblock of Hv1 as shown in FIG. 9) show the fractional unblocked current, Icompound/Icontrol, versus toxin concentration. The curves were fit to the Hill equation, Fun=(1+([compound]/Ki)h)−1), wherein the [compound] is the effective compound concentration, Fun is the fraction of unblocked current at equilibrium. Ki is the inhibition constant and h is the Hill coefficient.

[3] = 100 nM compound, at −20 mV, holding −60 mV

Row | SMILES | Ki (human Hv1 channel [1]; I-V plot, −20 mV) [nM] | V1/2 shift of G-V curve (human Hv1 channel [2]; 100 nM compound) | block of Hv1 channel current (human Hv1 channel [2]; [3]) [%] | pore blocker strength for Hv1 channel (in words) (human Hv1 channel [2]) | Ki (human Hv1 channel [1]) [nM] | V1/2 shift of G-V curve (human Hv1 channel [2]; 10 μM compound, shift to the left) [mV] | block of Hv1 current (human Hv1 channel [2]; 10 μM compound, at −20 mV, holding −60 mV) [%] | time course of block (washin) (human Hv1 channel [2]; 100 nM applied to Hv1 channels) | time course of unblock (washout) (human Hv1 channel [2]; washed away with isotonic saline)
1 | O=C(O)[C@@H]1CS[C@H](c2ccccc2)N1 [S2, (2R,4R)-2-phenylthiazolidine-4-carboxylic acid] | 20 | about 35 mV | 85 | strong nano-molar pore blocker |  |  |  |  | 
2 | C=C[C@@H]1CS[C@H](c2ccccc2)N1C(=O)OC(C)(C)C [Original Compound, (2R,4R)-tert-butyl 2Phenyl-4-vinylthiazolidine-3-carboxylate] |  |  |  | weak pore blocker | 3000 | ~15 | 20 |  | 
3 | CC(C)(C)OC(=O)N1[C@H](CO)CS[C@@H]1c1ccccc1 [S1, (2R,4R)-tert-butyl 4-(hydroxymethyl)-2-Phenylthiazolidine-3-carboxylate] | 3 | about 41 mV | 92 | strong nano-molar pore blocker; also recorded: relatively strong pore blocker |  |  |  | blocks the channel current immediately | the current resumes
